Experiments:
human AT1R = human AT1R (Homo sapiens (Human), UniProt P30556); experiment: Counterscreen radioligand binding assay, displacement of 125I-[Sar1, Ile8]-Angiotensin II, hAT1R WT; conditions: for inhibition at 1 µM / inhibition at 10 µM: 125I-[Sar1, Ile8]-Ang II, semi-quantitative score; for inhibition at 1 µM: compound at 1 μM, read-out: % Displaced radioligand at 1 μM; for inhibition at 10 µM: compound at 10 μM, read-out: % Displaced radioligand at 10 μM; for IC50: HEK-293 cell membranes, read-out: Binding affinity On hAT1R IC50
Procedure, shortened: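 Compounds displaced 0.05 nM 125I-[Sar1, Ile8]-Ang II from human AT1R in HEK-293 membranes (1 h, 25° C; Tris/MgCl2/EDTA/BSA buffer, pH 7.4). Readout was filtration and scintillation counting, with non-specific binding set by 10 μM [Sar1]-Ang II. Values are % displacement at 1 μM and […], or IC50 from eight-point four-parameter fits.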

human AT2R fused to Cb23 = human AT2R fused to Cb23 (Homo sapiens, UniProt P50052); experiment: Radioligand binding assay, displacement of 125I-[Sar1, Ile8]-Angiotensin II, hAT2R Cb23; conditions: displacement of 125I-[Sar1, Ile8]-Angiotensin II, human AT2R fused to Cb23, HEK-293 cell membrane preparations; read-out: Binding affinity on hAT2R_Cb23 IC50
Procedure, shortened: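 Membranes from HEK-293 cells expressing human AT2R fused to Cb23 were incubated with 0.05 nM 125I-[Sar1, Ile8]-Angiotensin II in 100 μL buffer (50 mM Tris, 5 mM MgCl2, 1 mM EDTA, 0.1% BSA, pH 7.4) for one hour at 25° C. Ligands were tested as eight-point dose-response curves in duplicate, with C21 and Angiotensin II as references.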

human AT1R, sequence (P30556 whole entry): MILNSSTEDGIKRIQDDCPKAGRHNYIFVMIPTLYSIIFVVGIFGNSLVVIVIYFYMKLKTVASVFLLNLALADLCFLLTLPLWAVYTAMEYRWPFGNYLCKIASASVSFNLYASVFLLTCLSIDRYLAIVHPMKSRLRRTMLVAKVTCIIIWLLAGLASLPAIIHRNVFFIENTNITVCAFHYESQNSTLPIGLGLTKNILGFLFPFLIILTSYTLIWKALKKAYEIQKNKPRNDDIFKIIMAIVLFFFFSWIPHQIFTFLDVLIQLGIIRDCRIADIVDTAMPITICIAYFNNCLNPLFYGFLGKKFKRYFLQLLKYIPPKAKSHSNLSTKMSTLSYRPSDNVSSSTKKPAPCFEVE
human AT2R fused to Cb23, sequence (P50052 whole entry, looked up, the tested form may be a part): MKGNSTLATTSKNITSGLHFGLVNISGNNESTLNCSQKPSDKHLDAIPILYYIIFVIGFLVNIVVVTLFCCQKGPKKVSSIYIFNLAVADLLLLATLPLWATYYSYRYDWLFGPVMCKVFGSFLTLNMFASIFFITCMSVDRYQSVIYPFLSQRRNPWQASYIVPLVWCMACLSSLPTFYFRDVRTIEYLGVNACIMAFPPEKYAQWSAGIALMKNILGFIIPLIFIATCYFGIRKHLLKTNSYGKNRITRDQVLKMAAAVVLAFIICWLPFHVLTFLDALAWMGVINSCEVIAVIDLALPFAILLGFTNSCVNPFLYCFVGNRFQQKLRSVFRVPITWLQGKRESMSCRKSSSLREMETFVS

| Compound | inhibition at 1 µM (human AT1R) [%] | inhibition at 10 µM (human AT1R) [%] | IC50 (human AT2R fused to Cb23) [µM] | IC50 (human AT1R) [µM] |
| --- | --- | --- | --- | --- |
| Cc1cc(C2CC2)cc(N2CCN(Cc3nc4ccccc4s3)CC2)c1-c1nn[nH]n1 [Compound A-127, 2-[[4-[5-cycloprop-yl-3-methyl-2-(2H-tetrazol-5-yl)phen-yl]piperazin-1-yl]-methyl]-1,3-benzo-thiazole] | < 30 | < 30 | 0.0744 |  |
| CCc1cc(C2CC2)cc(N2CCN(Cc3nc4ccccc4s3)CC2)c1-c1nn[nH]n1 [Compound A-128, 2-[[4-[5-cycloprop-yl-3-ethyl-2-(2H-tetrazol-5-yl)phen-yl]piperazin-1-yl]-methyl]-1,3-benzo-thiazole] | 30 to 50 | > 50 | 2.19 | 18.2 |
| CC(C)Cc1cc(F)c(-c2nn[nH]n2)c(N2CCN(Cc3nc4ccccc4s3)CC2)c1 [Compound A-132, 2-[[4-[3-fluoro-5-isobutyl-2-(2H-tetrazol-5-yl)phen-yl]piperazin-1-yl]-methyl]-1,3-benzo-thiazole] | < 30 | < 30 | 0.355 |  |
| Cc1cc(-c2nn[nH]n2)c(N2CCN(Cc3nc4ccccc4s3)CC2)cc1CC(C)C [Compound A-134, 2-[[4-[5-isobutyl-4-methyl-2-(2H-tetrazol-5-yl)phen-yl]piperazin-1-yl]-methyl]-1,3-benzo-thiazole] | < 30 | < 30 | 9.66 |  |
| CC(C)Cc1cc(N2CCN(Cc3nc4ccccc4s3)CC2)c(-c2nn[nH]n2)cc1N [Compound A-138, 4-[4-(1,3-benzo-thiazol-2-ylmethyl)-piperazin-1-yl]-2-isobutyl-5-(2H-tetrazol-5-yl)aniline] | < 30 | < 30 | 4.71 |  |
| CNc1cc(-c2nn[nH]n2)c(N2CCN(Cc3nc4ccccc4s3)CC2)cc1CC(C)C [Compound A-139, 4-[4-(1,3-benzothi-azol-2-ylmethyl)-piperazin-1-yl]-2-isobutyl-N-methyl-5-(2H-tetrazol-5-yl)aniline] | < 30 | < 30 | 4.96 |  |
| CCNc1cc(-c2nn[nH]n2)c(N2CCN(Cc3nc4ccccc4s3)CC2)cc1CC(C)C [Compound A-140, 4-[4-(1,3-benzo-thiazol-2-ylmethyl)-piperazin-1-yl]-N-ethyl-2-isobutyl-5-(2H-tetrazol-5-yl)-aniline] | < 30 | 30 to 50 | 0.736 | 24.7 |
| CCc1ccc(-c2nn[nH]n2)c(N2CCN(Cc3nc4ccccc4s3)CC2)n1 [Compound A-142, 2-[[4-[6-ethyl-3-(2H-tetrazol-5-yl)-2-pyridyl]piperazin-1-yl]methyl]-1,3-benzothiazole] | < 30 | 30 to 50 | 9.11 |  |
| CC(C)Cc1ccc(-c2nn[nH]n2)c(N2CCN(Cc3nc4ccccc4s3)CC2)n1 [Compound A-148, 2-[[4-[6-isobutyl-3-(2H-tetrazol-5-yl)-2-pyridyl]piperazin-1-yl]methyl]-1,3-benzothiazole] | < 30 | < 30 | 6.24 |  |
| CC(C)Oc1cc(C2CC2)c(-c2nn[nH]n2)c(N2CCN(Cc3nc4ccccc4c(=O)[nH]3)CC2)c1 [Compound A-152] | < 30 | < 30 | 2.87 |  |
| CC(C)Cc1cc(F)c(-c2nn[nH]n2)c(N2CCN(Cc3nc4ccccc4c(=O)[nH]3)CC2)c1 [Compound A-154, 2-[[4-[3-fluoro-5-isobutyl-2-(2H-tetrazol-5-yl)phen-yl]piperazin-1-yl]-methyl]-3H-quin-azolin-4-one] | < 30 | < 30 | 0.16 |  |
| CCc1cc(OC(C)C)cc(N2CCN(Cc3cccnn3)CC2)c1-c1nn[nH]n1 [Compound A-159, 3-[[4-[3-ethyl-5-isopropoxy-2-(2H-tetrazol-5-yl)phen-yl]piperazin-1-yl]-methyl]pyridazine] | < 30 | < 30 | 3.08 |  |
| CC(C)Oc1cc(N2CCN(Cc3cccnn3)CC2)c(-c2nn[nH]n2)cc1C1CC1 [Compound A-160, 3-[[4-[4-cycloprop-yl-5-isopropoxy-2-(2H-tetrazol-5-yl)-phenyl]piperazin-1-yl]methyl]pyrid-azine] | < 30 | < 30 | 4.94 |  |
| CC(C)Oc1cc(C2CC2)c(-c2nn[nH]n2)c(N2CCN(Cc3cccnn3)CC2)c1 [Compound A-161, 3-[[4-[3-cycloprop-yl-5-isopropoxy-2-(2H-tetrazol-5-yl)-phenyl]piperazin-1-yl]methyl]pyrid-azine] | < 30 | < 30 | 1.46 |  |

More lines, in order of falling IC50 (human AT2R fused to Cb23), values ahead:

| inhibition at 1 µM (human AT1R) [%] | inhibition at 10 µM (human AT1R) [%] | IC50 (human AT2R fused to Cb23) [µM] | IC50 (human AT1R) [µM] | Compound |
| --- | --- | --- | --- | --- |
| < 30 | < 30 | 9.74 |  | c1ccc2sc(CN3CCN(c4nc(C5CC5)cnc4-c4nn[nH]n4)CC3)nc2c1 [Compound A-146, 2-[[4-[6-cycloprop-yl-3-(2H-tetrazol-5-yl)pyrazin-2-yl]-piperazin-1-yl]-methyl]-1,3-benzo-thiazole] |
| < 30 | < 30 | 8.42 |  | CC(C)Cc1cc(N2CCN(Cc3nc4ccccc4c(=O)[nH]3)CC2)c(-c2nn[nH]n2)cc1F [Compound A-153, 2-[[4-[4-fluoro-5-isobutyl-2-(2H-tetrazol-5-yl)phen-yl]piperazin-1-yl]-methyl]-3H-quin-azolin-4-one] |
| < 30 | < 30 | 8.4 |  | c1ccc2sc(CN3CCN(c4cc(NCC5CC5)cnc4-c4nn[nH]n4)CC3)nc2c1 [Compound A-149, 5-[4-(1,3-benzo-thiazol-2-ylmethyl)-piperazin-1-yl]-N-(cyclopropylmeth-yl)-6-(2H-tetrazol-5-yl)pyridin-3-amine] |
| < 30 | < 30 | 8.22 |  | c1ccc2sc(CN3CCN(c4nc(C5CC5)ccc4-c4nn[nH]n4)CC3)nc2c1 [Compound A-145, 2-[[4-[6-cycloprop-yl-3-(2H-tetrazol-5-yl)-2-pyridyl]piper-azin-1-yl]methyl]-1,3-benzothiazole] |
| < 30 | < 30 | 6.79 |  | CC(C)Oc1cc(F)c(-c2nn[nH]n2)c(N2CCN(Cc3nc4ccccc4c(=O)[nH]3)CC2)c1 [Compound A-151, 2-[[4-[3-fluoro-5-isopropoxy-2-(2H-tetrazol-5-yl)phen-yl]piperazin-1-yl]-methyl]-3H-quin-azolin-4-one] |
| < 30 | < 30 | 5.46 |  | c1ccc2sc(CN3CCN(c4cc(C5CC5)cnc4-c4nn[nH]n4)CC3)nc2c1 [Compound A-143, 2-[[4-[5-cycloprop-yl-2-(2H-tetrazol-5-yl)-3-pyridyl]piper-azin-1-yl]methyl]-1,3-benzothiazole] |
| < 30 | < 30 | 1.47 |  | CC(C)Cc1cnc(-c2nn[nH]n2)c(N2CCN(Cc3nc4ccccc4s3)CC2)c1 [Compound A-147, 2-[[4-[5-isobutyl-2-(2H-tetrazol-5-yl)-3-pyridyl]piperazin-1-yl]methyl]-1,3-benzothiazole] |
| < 30 | < 30 | 1.19 |  | CC(C)Cc1cc(N2CCN(Cc3nc4ccccc4s3)CC2)c(-c2nn[nH]n2)cc1F [Compound A-133, 2-[[4-[4-fluoro-5-isobutyl-2-(2H-tetrazol-5-yl)phen-yl]piperazin-1-yl]-methyl]-1,3-benzo-thiazole] |
| < 30 | < 30 | 0.389 |  | Fc1cc(C2CC2)cc(N2CCN(Cc3nc4ccccc4s3)CC2)c1-c1nn[nH]n1 [Compound A-125, 2-[[4-[5-cycloprop-yl-3-fluoro-2-(2H-tetrazol-5-yl)phen-yl]piperazin-1-yl]-methyl]-1,3-benzo-thiazole] |
| < 30 | < 30 | 0.158 |  | c1ccc2sc(CN3CCN(c4cc(C5CC5)cc(C5CC5)c4-c4nn[nH]n4)CC3)nc2c1 [Compound A-129, 2-[[4-[3,5-dicyclo-propyl-2-(2H-tetrazol-5-yl)phen-yl]piperazin-1-yl]-methyl]-1,3-benzo-thiazole] |
| < 30 | < 30 | 0.022 |  | Cc1cc(CC(C)C)cc(N2CCN(Cc3nc4ccccc4s3)CC2)c1-c1nn[nH]n1 [Compound A-135] |
| < 30 | < 30 | 0.016 |  | CC(C)Cc1cc(C2CC2)c(-c2nn[nH]n2)c(N2CCN(Cc3nc4ccccc4s3)CC2)c1 [Compound A-137, 2-[[4-[3-cycloprop-yl-5-isobutyl-2-(2H-tetrazol-5-yl)-phenyl]piperazin-1-yl]methyl]-1,3-benzothiazole] |
| < 30 | < 30 | 0.0121 |  | CCc1cc(CC(C)C)cc(N2CCN(Cc3nc4ccccc4s3)CC2)c1-c1nn[nH]n1 [Compound A-136, 2-[[4-[3-ethyl-5-isobutyl-2-(2H-tetrazol-5-yl)phen-yl]piperazin-1-yl]-methyl]-1,3-benzo-thiazole] |
